One assay addresses SMARCA2 (Homo sapiens, UniProt P51531). Briefly: HiBiT assay for protein degradation, Hela SMARCA2-HiBiT cells (A series). It counts as cell-based. Details: Hela cells were genetically modified via CRISPR/Cas9 to fuse HiBiT to the carboxy terminus of SMARCA2; host or cells: HeLa (CRISPR/Cas9 HiBiT knock-in). The procedure, abridged:
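HeLa cells engineered by CRISPR/Cas9 to carry a HiBiT tag fused to the C-terminus of SMARCA2 (Promega CS302365) were grown in DMEM supplemented with FBS and penicillin-streptomycin. After treatment, remaining SMARCA2 protein was quantified with the Nano-Glo® HiBiT Lytic Detection Assay (Promega N3050), and curves were fitted in GraphPad Prism.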

A further assay concerns the target SMARCA4 (Homo sapiens, UniProt P51532). Briefly: HiBiT assay for protein degradation, Hela SMARCA4-HiBiT cells (A series). It counts as cell-based. Further details: fuse HiBiT to the carboxy terminus of SMARCA2 (Promega CS302365) or SMARCA4 (Promega CS3023225); host or cells: HeLa (CRISPR/Cas9 HiBiT knock-in). Conditions: for DC50: read-out: SMARC A4 Hela HiBit DC50; for Dmax: read-out: SMARC A4 Hela HiBit Dmax(%). A digest of the protocol:
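HeLa cells engineered by CRISPR/Cas9 to carry a HiBiT tag fused to the C-terminus of SMARCA4 (Promega CS3023225) were grown in DMEM supplemented with FBS and penicillin-streptomycin. After compound exposure, remaining SMARCA4 protein was quantified using the Nano-Glo® HiBiT Lytic Detection Assay (Promega N3050), and curves were fitted in GraphPad Prism.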

Setting [1] is: Hela SMARCA2-HiBiT cells, 24 hours treatment; read-out: SMARC A2 Hela HiBit DC50.
Setting [2] is: Hela SMARCA2-HiBiT cells, 24 hours treatment; read-out: SMARC A2 Hela HiBit Dmax (%).
Setting [3] is: Hela SMARCA4-HiBiT cells, 24 hours treatment.
Where [4] appears, read: HeLa, read-out: SMARC A2 Hela HiBit Dmax (%).
[5] abbreviates: read-out: SMARC A2 Hela HiBit DC50.
Setting [6] is: Hela SMARCA2-HiBiT cells, 24 hours treatment.

Read-outs that look alike come from different tables or passages of the source.

SMARCA2, sequence (P51531 whole entry, the tested form may be a part): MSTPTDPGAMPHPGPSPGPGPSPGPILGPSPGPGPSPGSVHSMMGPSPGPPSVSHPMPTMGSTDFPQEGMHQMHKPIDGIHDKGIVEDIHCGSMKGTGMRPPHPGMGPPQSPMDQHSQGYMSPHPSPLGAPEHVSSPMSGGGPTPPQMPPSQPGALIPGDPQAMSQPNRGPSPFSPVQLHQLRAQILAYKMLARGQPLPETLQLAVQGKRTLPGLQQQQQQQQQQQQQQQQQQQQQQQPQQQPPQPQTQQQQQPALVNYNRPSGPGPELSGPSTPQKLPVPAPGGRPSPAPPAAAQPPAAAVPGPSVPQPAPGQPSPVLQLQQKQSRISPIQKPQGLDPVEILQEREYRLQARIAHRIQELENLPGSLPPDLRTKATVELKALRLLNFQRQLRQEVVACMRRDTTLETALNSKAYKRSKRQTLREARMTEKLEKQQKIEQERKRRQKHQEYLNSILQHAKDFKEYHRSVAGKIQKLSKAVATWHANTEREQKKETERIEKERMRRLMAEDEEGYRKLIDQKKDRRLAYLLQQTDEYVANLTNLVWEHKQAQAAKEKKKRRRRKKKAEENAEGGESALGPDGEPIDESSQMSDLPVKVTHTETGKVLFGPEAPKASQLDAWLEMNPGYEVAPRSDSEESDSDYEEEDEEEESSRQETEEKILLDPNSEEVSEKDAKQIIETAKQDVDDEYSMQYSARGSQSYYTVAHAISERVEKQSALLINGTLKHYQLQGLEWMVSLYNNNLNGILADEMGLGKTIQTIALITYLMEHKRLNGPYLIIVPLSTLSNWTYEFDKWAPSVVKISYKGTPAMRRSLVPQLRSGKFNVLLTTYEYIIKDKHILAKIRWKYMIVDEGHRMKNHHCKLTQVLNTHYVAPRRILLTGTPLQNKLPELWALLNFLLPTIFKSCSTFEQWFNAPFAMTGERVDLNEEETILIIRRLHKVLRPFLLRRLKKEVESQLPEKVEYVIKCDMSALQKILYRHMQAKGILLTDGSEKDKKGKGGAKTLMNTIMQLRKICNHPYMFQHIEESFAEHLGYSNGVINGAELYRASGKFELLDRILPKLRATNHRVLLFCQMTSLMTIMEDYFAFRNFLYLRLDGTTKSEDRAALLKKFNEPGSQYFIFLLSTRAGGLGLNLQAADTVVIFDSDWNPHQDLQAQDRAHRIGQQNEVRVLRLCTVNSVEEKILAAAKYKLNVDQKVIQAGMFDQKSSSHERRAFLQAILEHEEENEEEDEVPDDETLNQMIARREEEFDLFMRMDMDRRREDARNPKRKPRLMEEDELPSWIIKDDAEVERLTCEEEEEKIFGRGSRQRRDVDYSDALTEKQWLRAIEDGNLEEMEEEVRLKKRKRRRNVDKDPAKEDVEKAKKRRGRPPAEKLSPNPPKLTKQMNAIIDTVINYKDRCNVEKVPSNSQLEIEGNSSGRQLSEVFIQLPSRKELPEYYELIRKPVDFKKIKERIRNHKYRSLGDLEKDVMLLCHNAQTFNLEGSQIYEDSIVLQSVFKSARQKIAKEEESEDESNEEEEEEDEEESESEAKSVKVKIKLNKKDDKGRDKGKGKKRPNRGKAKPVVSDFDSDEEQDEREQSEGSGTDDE
SMARCA4, sequence (P51532 whole entry, the tested form may be a part): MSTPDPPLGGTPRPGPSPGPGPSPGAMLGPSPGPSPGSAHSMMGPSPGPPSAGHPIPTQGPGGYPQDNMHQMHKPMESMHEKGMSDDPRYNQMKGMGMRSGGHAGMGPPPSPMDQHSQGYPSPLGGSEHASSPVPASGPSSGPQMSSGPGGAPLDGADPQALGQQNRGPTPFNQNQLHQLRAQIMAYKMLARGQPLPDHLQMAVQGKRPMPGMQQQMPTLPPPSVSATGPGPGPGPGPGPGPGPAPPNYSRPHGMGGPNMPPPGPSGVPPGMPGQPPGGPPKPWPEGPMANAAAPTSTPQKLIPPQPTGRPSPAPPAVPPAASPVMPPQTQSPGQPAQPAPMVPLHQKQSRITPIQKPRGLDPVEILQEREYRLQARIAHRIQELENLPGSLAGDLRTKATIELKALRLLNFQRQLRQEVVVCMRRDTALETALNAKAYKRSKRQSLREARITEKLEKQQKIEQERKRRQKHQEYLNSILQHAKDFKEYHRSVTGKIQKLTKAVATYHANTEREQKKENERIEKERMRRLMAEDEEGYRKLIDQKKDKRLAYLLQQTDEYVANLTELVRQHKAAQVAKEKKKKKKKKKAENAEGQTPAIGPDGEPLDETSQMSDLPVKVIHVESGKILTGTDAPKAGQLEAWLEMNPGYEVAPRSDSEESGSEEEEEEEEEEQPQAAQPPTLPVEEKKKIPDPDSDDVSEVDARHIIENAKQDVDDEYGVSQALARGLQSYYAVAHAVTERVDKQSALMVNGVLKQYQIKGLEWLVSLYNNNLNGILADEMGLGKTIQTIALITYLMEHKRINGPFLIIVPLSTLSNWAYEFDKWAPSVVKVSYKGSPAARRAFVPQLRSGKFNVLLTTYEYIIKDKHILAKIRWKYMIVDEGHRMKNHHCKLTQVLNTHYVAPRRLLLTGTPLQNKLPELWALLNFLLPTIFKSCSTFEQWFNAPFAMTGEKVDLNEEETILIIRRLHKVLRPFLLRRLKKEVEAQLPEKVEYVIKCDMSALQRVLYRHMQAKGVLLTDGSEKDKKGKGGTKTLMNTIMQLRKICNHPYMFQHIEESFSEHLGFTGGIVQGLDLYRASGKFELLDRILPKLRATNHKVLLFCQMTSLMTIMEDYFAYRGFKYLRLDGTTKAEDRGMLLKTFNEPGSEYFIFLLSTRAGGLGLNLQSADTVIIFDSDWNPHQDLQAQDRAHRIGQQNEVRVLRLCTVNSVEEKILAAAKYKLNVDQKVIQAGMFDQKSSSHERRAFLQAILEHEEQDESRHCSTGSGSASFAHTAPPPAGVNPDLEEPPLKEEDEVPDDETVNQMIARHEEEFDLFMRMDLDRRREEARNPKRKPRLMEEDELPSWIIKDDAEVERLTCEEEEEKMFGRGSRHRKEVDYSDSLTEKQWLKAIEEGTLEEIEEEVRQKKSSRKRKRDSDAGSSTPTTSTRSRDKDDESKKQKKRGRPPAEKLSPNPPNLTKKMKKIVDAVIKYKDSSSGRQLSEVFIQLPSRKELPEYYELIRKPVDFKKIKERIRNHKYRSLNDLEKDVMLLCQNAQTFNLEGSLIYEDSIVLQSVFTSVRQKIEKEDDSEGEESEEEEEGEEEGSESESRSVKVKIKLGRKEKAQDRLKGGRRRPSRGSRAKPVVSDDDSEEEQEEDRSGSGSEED

`Cc1ncsc1-c1ccc([C@H](CCCCCN2CCC(c3ccc4c(n3)-n3c(nc(=O)c5c(Br)cccc53)C43CCCCC3)CC2)NC(=O)[C@H]2C[C@H](O)CN2C(=O)[C@@H](n2cc(C3CC3)nn2)C(C)(C)C)cc1` [Compound A37, (2R,4S)—N—((S)-6-(4-(4′-bromo-5′-oxo-5′H-spiro[cyclohexane-1,7′-pyrido[3′,2′: 4,5]pyrrolo[1,2-a]quinazolin]-10′-yl)piperidin-1-yl)-1-(4-(4-methylthiazol-5-yl)phenyl)hexyl)-1-((S)-2-(4-cyclopropyl-1H-1,2,3-triazol-1-yl)-3,3-dimethylbutanoyl)-4-hydroxypyrrolidine-2-carboxamide]: the DC50 on SMARCA2 (setting [1]) and at SMARCA4 (setting [3]) was below 100 nM in each case. Further, the Dmax on SMARCA2 (setting [2]) and on SMARCA4 (setting [3]) was above 90% throughout.
Take `Cc1ncsc1-c1ccc([C@H](CCCCCN2CCC(c3ccc4c(c3)C3(CCCCC3)c3nc(=O)c5c(Br)cccc5n3-4)CC2)NC(=O)[C@H]2C[C@H](O)CN2C(=O)[C@@H](NC(=O)C2(CN3CCOCC3)CC2)C(C)(C)C)cc1` [Compound A38, (2R,4S)—N—((S)-6-(4-(4′-bromo-5′-oxo-5′H-spiro[cyclohexane-1,7′-indolo[1,2-a]quinazolin]-9′-yl)piperidin-1-yl)-1-(4-(4-methylthiazol-5-yl)phenyl)hexyl)-1-((S)-3,3-dimethyl-2-(1-(morpholinomethyl)cyclopropane-1-carboxamido)butanoyl)-4-hydroxypyrrolidine-2-carboxamide]: the DC50 is below 100 nM at SMARCA2 (setting [1]) and 100 to 500 nM on SMARCA4 (setting [3]). The Dmax on SMARCA2 (setting [2]) is above 90%; on SMARCA4 (setting [3]), 70 to 90%.
The matching figures for `Cc1ncsc1-c1ccc([C@H](C)NC(=O)[C@@H]2C[C@@H](O)CN2C(=O)[C@@H](NC(=O)CN2CCC(c3ccc4c(c3)-n3c(nc(=O)c5c(Cl)cccc53)C43CCCCC3)CC2)C(C)(C)C)cc1` [Compound A39, (2S,4R)-1-((S)-2-(2-(4-(4′-chloro-5′-oxo-5′H-spiro[cyclohexane-1,7′-indolo[1,2-a]quinazolin]-10′-yl)piperidin-1-yl)acetamido)-3,3-dimethylbutanoyl)-4-hydroxy-N—((S)-1-(4-(4-methylthiazol-5-yl)phenyl)ethyl)pyrrolidine-2-carboxamide]: below 100 nM, below 100 nM, above 90% and above 90%.
Take `Cc1ncsc1-c1ccc([C@H](C)NC(=O)[C@@H]2C[C@@H](O)CN2C(=O)[C@@H](NC(=O)CN2CCC(c3ccc4c(c3)-n3c(nc(=O)c5c(Br)cccc53)C43CCCCC3)CC2)C(C)(C)C)cc1` [Compound A40, (2S,4R)-1-((S)-2-(2-(4-(4′-bromo-5′-oxo-5′H-spiro[cyclohexane-1,7′-indolo[1,2-a]quinazolin]-10′-yl)piperidin-1-yl)acetamido)-3,3-dimethylbutanoyl)-4-hydroxy-N—((S)-1-(4-(4-methylthiazol-5-yl)phenyl)ethyl)pyrrolidine-2-carboxamide]: the Dmax at SMARCA2 (setting [4]) and on SMARCA4 (HeLa) was above 90% in each case. In addition, the DC50 on SMARCA2 (setting [5]) and on SMARCA4 was below 100 nM throughout.
With `Cc1ncsc1-c1ccc([C@H](C)NC(=O)[C@@H]2C[C@@H](O)CN2C(=O)[C@@H](NC(=O)[C@H]2CC[C@H](CN3CCC(c4ccc5c(c4)-n4c(nc(=O)c6c(Br)cccc64)C54CCCCC4)CC3)CC2)C(C)(C)C)cc1` [Compound A41, (2S,4R)-1-((S)-2-((1r,4S)-4-((4-(4′-bromo-5′-oxo-5′H-spiro[cyclohexane-1,7′-indolo[1,2-a]quinazolin]-10′-yl)piperidin-1-yl)methyl)cyclohexane-1-carboxamido)-3,3-dimethylbutanoyl)-4-hydroxy-N—((S)-1-(4-(4-methylthiazol-5-yl)phenyl)ethyl)pyrrolidine-2-carboxamide], the Dmax on SMARCA2 (setting [4]) was 70 to 90%; on SMARCA4 (HeLa) it was below 50%. Also, the 50% degradation concentration (DC50) at SMARCA2 (setting [1]) was below 100 nM. Moreover, at SMARCA4 (setting [3]), the “SMARC A4 Hela HiBit DC50(nM)” value was “No Fit”.
As for `Cc1ncsc1-c1ccc([C@H](C)NC(=O)[C@@H]2C[C@@H](O)CN2C(=O)[C@@H](NC(=O)[C@H]2CC[C@H](CN3CCC(c4ccc5c(c4)-n4c(nc(=O)c6c(Cl)cccc64)C54CCCCC4)CC3)CC2)C(C)(C)C)cc1` [Compound A42, (2S,4R)-1-((S)-2-((1r,4S)-4-((4-(4′-chloro-5′-oxo-5′H-spiro[cyclohexane-1,7′-indolo[1,2-a]quinazolin]-10′-yl)piperidin-1-yl)methyl)cyclohexane-1-carboxamido)-3,3-dimethylbutanoyl)-4-hydroxy-N—((S)-1-(4-(4-methylthiazol-5-yl)phenyl)ethyl)pyrrolidine-2-carboxamide], the Dmax at SMARCA2 (setting [2]) is 70 to 90%. For the same compound, the DC50 at SMARCA2 (read-out: SMARC A2 Hela HiBit DC50; Hela SMARCA2-HiBiT cells, 24 hours treatment) was below 100 nM. Besides, the “SMARC A4 Hela HiBit DC50(nM)” value at SMARCA4 (setting [3]) is “No Fit”.
On to `Cc1ncsc1-c1ccc([C@H](C)NC(=O)[C@@H]2C[C@@H](O)CN2C(=O)[C@@H](n2cc(CN3CCC(c4ccc5c(c4)-n4c(nc(=O)c6c(Br)cccc64)C54CCCCC4)CC3)nn2)C(C)(C)C)cc1` [Compound A43, (2S,4R)-1-((S)-2-(4-((4-(4′-bromo-5′-oxo-5′H-spiro[cyclohexane-1,7′-indolo[1,2-a]quinazolin]-10′-yl)piperidin-1-yl)methyl)-1H-1,2,3-triazol-1-yl)-3,3-dimethylbutanoyl)-4-hydroxy-N—((S)-1-(4-(4-methylthiazol-5-yl)phenyl)ethyl)pyrrolidine-2-carboxamide], for which the DC50 on SMARCA2 (setting [1]) and at SMARCA4 (setting [3]) was below 100 nM throughout. The values for the Dmax on SMARCA2 (setting [2]) and on SMARCA4 (setting [3]) were above 90% and 70 to 90%, respectively.
Take `Cc1ncsc1-c1ccc([C@H](C)NC(=O)[C@@H]2C[C@@H](O)CN2C(=O)[C@@H](n2cc(CCCN3CCC(c4ccc5c(c4)-n4c(nc(=O)c6c(Br)cccc64)C54CCCCC4)CC3)nn2)C(C)(C)C)cc1` [Compound A44, (2S,4R)-1-((S)-2-(4-(3-(4-(4′-bromo-5′-oxo-5′H-spiro[cyclohexane-1,7′-indolo[1,2-a]quinazolin]-10′-yl)piperidin-1-yl)propyl)-1H-1,2,3-triazol-1-yl)-3,3-dimethylbutanoyl)-4-hydroxy-N—((S)-1-(4-(4-methylthiazol-5-yl)phenyl)ethyl)pyrrolidine-2-carboxamide]: the “SMARC A2 Hela HiBit Dmax (%)” value on SMARCA2 (setting [6]) was “A (A (>90% degradation))”. Besides, the DC50 at SMARCA2 (setting [5]) and on SMARCA4 was below 100 nM throughout. For the same compound, the “SMARC A4 Hela HiBit Dmax(%)” value on SMARCA4 (setting [3]) is “B (B (70-90% degradation))”.
For `Cc1ncsc1-c1ccc([C@H](C)NC(=O)[C@@H]2C[C@@H](O)CN2C(=O)[C@@H](n2cc(CCCCN3CCC(c4ccc5c(c4)-n4c(nc(=O)c6c(Br)cccc64)C54CCCCC4)CC3)nn2)C(C)(C)C)cc1` [Compound A45, (2S,4R)-1-((S)-2-(4-(4-(4-(4′-bromo-5′-oxo-5′H-spiro[cyclohexane-1,7′-indolo[1,2-a]quinazolin]-10′-yl)piperidin-1-yl)butyl)-1H-1,2,3-triazol-1-yl)-3,3-dimethylbutanoyl)-4-hydroxy-N—((S)-1-(4-(4-methylthiazol-5-yl)phenyl)ethyl)pyrrolidine-2-carboxamide], the “SMARC A2 Hela HiBit Dmax (%)” value at SMARCA2 (setting [6]) is on record as “A (A (>90% degradation))”. The DC50 at SMARCA2 (setting [5]) and at SMARCA4 was below 100 nM each time. Moreover, the “SMARC A4 Hela HiBit Dmax(%)” value at SMARCA4 (setting [3]) is listed as “B (B (70-90% degradation))”.
